# Patent US6677309B1, “Anti-cancer drug aldehyde conjugate drugs with enhanced cytotoxicity compounds, compositions and methods” (University Technology Corporation, priority 1997, dated 2004)
# Read-outs that look alike come from different tables or passages of the source.
# Key:
# [1] = amorphous material
# PC-3 = assay: Prostate cancer cell cytotoxicity, crystal violet assay, PC-3; assay type: cell-based, human; conditions: 3 h drug
# Method: (§1) Toxicity to the three prostate cancer cell lines, LNCaP, DU-145, and PC-3 were measured in two different media, RPMI-1640 and DMEM (Dulbecco's Modified Eagle Medium), both supplemented with 10% fetal bovine serum.
# (§2) Cell lines were maintained in vitro in RPMI 1640 media or DMEM, each supplemented with 10% fetal bovine serum, 2 mM L-glutamine, 10 mM HEPES buffer, penicillin (100 units/mL) and streptomycin (100 μg/mL).
# (§3) Cells were dissociated with trypsin/EDTA, counted, and suspended in growth media (RPMI or DMEM) to a concentration of 5.6×10^3 cells/mL. Cell suspensions were dispensed in 180 μL aliquots into 96-well tissue culture plates. […] Each 100× solution was diluted 10× in growth media (RPMI or DMEM), and a 20 μL aliquot of the resulting 10× solution was immediately (<10s) added to-the appropriate lane. Additionally, one lane was treated with 20 μL of 10% DMSO in growth media (no drug) and one lane was treated with 200 μL of 1.5 M Tris buffer (no cells). The cells were incubated with the drugs for 3 h at 37° C. The drug solutions were then removed and replaced with 200 μL of fresh media. The cells were incubated for 4 days (7 days for PC-3 cells in DMEM) at 37° C. in a humidified atmosphere of 5% CO2 and 95% air. Cell survival was determined using a crystal violet assay as described earlier (Fenick, D. J. et al (1997) J. Med. Chem. 40: 2452-2461).
# DU-145 = assay: Prostate cancer cell cytotoxicity, crystal violet assay, DU-145; assay type: cell-based, human; conditions: 3 h drug, 4 days growth
# Method: as §1, §2, §3
# LNCaP = assay: Prostate cancer cell cytotoxicity, crystal violet assay, LNCaP; assay type: cell-based, human; conditions: 3 h drug, 4 days growth
# Method: as §1, §2, §3
# MCF-7/ADR cells = assay: Cytotoxicity versus time of drug hydrolysis before addition to cells; assay type: cell-based, human; conditions: 1 μmol equiv./L, 25° C., serum-free media containing 10% DMSO, MCF-7/ADR survival
# Method: The results of these experiments are illustrated in FIG. 2. […] However, the dimeric formaldehyde conjugate of daunorubicin completely lost its effectiveness within 25 min of standing in an aqueous solution. […] This biphasic curve is probably due to the decay mechanism of the dimeric formaldehyde conjugate of doxorubicin to doxorubicin in aqueous solution.
# The drug solution was diluted 1:100 with DMSO, then 1:10 in serum-free RPMI media 1640. A volume of 20 μL of the resulting 0.5 μM (1 μmol equiv/L) drug solution was immediately added to the t=0 min lane. The remaining lanes were treated at 5 min intervals with 20 μL of the remaining drug solution, which was held at 25° C. between additions. Additionally, one lane was treated with 20 μL/well of serum-free RPMI media containing 10% DMSO (no drug) and one lane replaced with 200 μL/well of 1.5 M Tris buffer (no cells). Each lane was incubated at 37° C. for 3 h.
# [2] = Hydrolysis in fetal bovine serum, HPLC; assay type: in vitro ADME; conditions: pH 8.1, in serum at 37° C., read-out: half-life of the equilibrium mixture with intermediate B with respect to formation of intermediates C and D
# [3] = Hydrolysis in aqueous phosphate buffer, HPLC; assay type: physicochemical
# Method: See Example 16. […] The DMSO was present to increase solubility.
# Second, the kinetics of hydrolysis were measured in pH 6.0 phosphate buffer.
# A 960 μL solution of pH 7.3 phosphate buffer was heated to 37° C. […] No change in the chromatography was observed if pH, 7.3 phosphate buffer was used as the eluent in place of pH 7.4 TEAA buffer.
Structure (SMILES),concentration to which the material dissolved instantly in dimethylsulfoxide [1] [µg/mL],"IC50 (PC-3; DMEM with 10% fetal bovine serum, 7 days growth, read-out: IC50 Values, PC-3/DMEM (converted)) [nM]","IC50 (PC-3; RPMI-1640 with 10% fetal bovine serum, 4 days growth, read-out: IC50 Values, PC-3/RPMI-1640 (converted)) [nM]","IC50 (DU-145; DMEM with 10% fetal bovine serum, read-out: IC50 Values, DU-145/DMEM (converted)) [nM]","IC50 (DU-145; RPMI-1640 with 10% fetal bovine serum, read-out: IC50 Values, DU-145/RPMI-1640 (converted)) [nM]","IC50 (LNCaP; DMEM with 10% fetal bovine serum, read-out: IC50 Values, LNCaP/DMEM (converted)) [nM]","IC50 (LNCaP; RPMI-1640 with 10% fetal bovine serum, read-out: IC50 Values, LNCaP/RPMI-1640 (converted)) [nM]",time of standing in an aqueous solution until effectiveness completely lost (MCF-7/ADR cells) [min],half-life at 25 µM [2] [h],"half-life at 25 µM ([3]; pH 6.0 phosphate buffer, 37° C.) [h]","time the equilibrium mixture is stable ([3]; pH 7.3, at equilibrium)","half-life ([3]; pH 7.3 phosphate buffer, 37° C., read-out: half-life of hydrolysis, forward reaction (A⇄B) to C+D (converted)) [h]"
"COc1cccc2c1C(=O)c1c(O)c3c(c(O)c1C2=O)C[C@@](O)(C(C)=O)C[C@@H]3O[C@H]1C[C@H]2[C@H](OCN2CN2CO[C@@H]3[C@H](C)O[C@@H](O[C@H]4C[C@](O)(C(C)=O)Cc5c(O)c6c(c(O)c54)C(=O)c4c(OC)cccc4C6=O)C[C@@H]32)[C@H](C)O1 [DAUNF, bis(3′-N-(3′-N,4′-O-methylenedaunorubicinyl))methane]",≥ 20000,0.5,2.5,4,5,1.5,3,≤ 25,–,–,–,–
COc1cccc2c1C(=O)c1c(O)c3c(c(O)c1C2=O)CC(O)(C(=O)CO)CC3OC1CC2C(OCN3CN2COC2C(C)OC(OC4C[C@](O)(C(=O)CO)Cc5c(O)c6c(c(O)c54)C(=O)c4c(OC)cccc4C6=O)CC23)C(C)O1 (stereo partly drawn) [EPIF],–,–,–,–,–,–,–,–,≥ 2,0.25,at least 2 days,~2
